Reference: patent publication US12157730B2, “Heteroaryl derivative, method for producing same, and pharmaceutical composition comprising same as effective component” (VORONOI INC., priority 2019, dated 2024)

molecular target: T1, Ba/F3 cell EGFR Exon20 ins NPH (Homo sapiens, UniProt P00533, INS773NPH); experiment: Ba/F3 cell proliferation suppression, EGFR Exon20 ins NPH; type: cell-based; conditions: GI50 class; Ba/F3 cell line with NPH inserted at Exon20 of EGFR; 72 hours
T1 construct: expressed in transfected cells; host or cells: Ba/F3
How it was run: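 Cells (3000–5000/well) plated 24 h before compound, 12-point 3-fold dilutions at 0.3 nM to 50 um final; Ba/F3 lines grown with 5 ng/ml IL-3. Viability by CellTiter-Glo luminescence after 72 h, growth ratio vs control, GI50 from curves; triplicate.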

Ba/F3 (NPH) Activity | Structure (SMILES)
B (50 nM ≤ GI50 < 500 nM) | C=CC(=O)Nc1cc(Nc2cc(N3OCC[C@@H]3Cc3cccnc3)ncn2)c(OC)cc1N1CCC(N2CCN(C3CC3)[C@@H](C)C2)CC1 [compound 1057, N-(2-(4-((S)-4-cyclopropyl-3-methylpiperazine-1-yl)piperidine-1-yl)-4-methoxy-5-((6-((S)-3-(pyridine-3-ylmethyl)isoxazolidine-2-yl)pyrimidine-4-yl)amino)phenyl)acrylamide]
A (GI50 < 50 nM) | C=CC(=O)Nc1cc(Nc2cc(N3OCC[C@@H]3c3ccc(Cl)cc3)ncn2)c(OC)cc1N1CCN(CC)CC1 [Example 255, N-(5-((6-((R)-3-(4-chlorophenyl)isoxazolidine-2-yl)pyrimidine-4-yl)amino)-2-(4-ethylpiperazine-1-yl)-4-methoxyphenyl) acrylamide]
A (GI50 < 50 nM) | C=CC(=O)Nc1cc(Nc2cc(N3OCC[C@@H]3c3cccc(C#N)c3)ncn2)c(OC)cc1N1CCC(N2CCOCC2)CC1 [compound 400, N-(5-((6-((R)-3-(3-cyanophenyl)isoxazolidine-2-yl)pyrimidine-4-yl)amino)-4-methoxy-2-(4-morpholinopiperidine-1-yl)phenyl)acrylamide]
A (GI50 < 50 nM) | C=CC(=O)Nc1cc(Nc2cc(N3OCC[C@@H]3c3cccc(Cl)c3Cl)ncn2)c(OC)cc1N1CCC(N2CCN(C3CC3)CC2)CC1 [Example 162, N-(2-(4-(4-cyclopropylpiperazine-1-yl)piperidine-1-yl)-5-((6-((R)-3-(2,3-dichlorophenyl)isoxazolidine-2-yl)pyrimidine-4-yl)amino)-4-methoxyphenyl) acrylamide]
A (GI50 < 50 nM) | C=CC(=O)Nc1cc(Nc2cc(N3OCC[C@@H]3c3cccc(C)c3F)ncn2)c(OC)cc1N1CCC(N2CC[C@H](N(C)C)C2)CC1 [compound 910, N-(2-(4-((S)-3-(dimethylamino)pyrolidine-1-yl)piperidine-1-yl)-5-((6-((R)-3-(2-fluoro-3-methylphenyl)isoxazolidine-2-yl)pyrimidine-4-yl)amino)-4-methoxyphenyl) acrylamide]
B (50 nM ≤ GI50 < 500 nM) | C=CC(=O)Nc1cc(Nc2cc(N3OCC[C@@H]3c3ccc(C)nc3)ncn2)c(OC)cc1N1CCN(C2CCN(C)CC2)CC1 [Example 48, N-(4-methoxy-2-(4-(1-methylpiperidine-4-yl)piperazine-1-yl)-5-((6-((R)-3-(6-methylpyridine-3-yl)isoxazolidine-2-yl)pyrimidine-4-yl)amino)phenyl) acrylamide]
A (GI50 < 50 nM) | C=CC(=O)Nc1cc(Nc2cc(N3OCC[C@@H]3c3cccc(Cl)c3F)ncn2)c(OC)cc1N1CCC(N2CCN(C3CC3)C[C@H]2C)CC1 [Example 149, N-(5-((6-((R)-3-(3-chloro-2-fluorophenyl)isoxazolidine-2-yl)pyrimidine-4-yl)amino)-2-(4-((R)-4-cyclopropyl-2-methylpiperazine-1-yl)piperidine-1-yl)-4-methoxyphenyl) acrylamide]
A (GI50 < 50 nM) | C=CC(=O)Nc1cc(Nc2cc(N3OCC[C@@H]3c3ccc(Cl)c(F)c3)ncn2)c(OC)cc1N1CCC(N2C[C@H]3C[C@@H]2CN3CC)CC1 [compound 859, N-(5-((6-((R)-3-(4-chloro-3-fluorophenyl)isoxazolidine-2-yl)pyrimidine-4-yl)amino)-2-(4-((1R,4R)-5-ethyl-2,5-diazabicyclo [2.2.1]heptane-2-yl)piperidine-1-yl)-4-methoxyphenyl) acrylamide]
A (GI50 < 50 nM) | C=CC(=O)Nc1cc(Nc2cc(N3OCC[C@@H]3c3ccc(F)c(Cl)c3)ncn2)c(OC)cc1N(C)CCOC [compound 904, N-(5-((6-((R)-3-(3-chloro-4-fluorophenyl)isoxazolidine-2-yl)pyrimidine-4-yl)amino)-4-methoxy-2-((2-methoxyethyl)(methyl)amino)phenyl) acrylamide]
A (GI50 < 50 nM) | C=CC(=O)Nc1cc(Nc2cc(N3OCC[C@@H]3c3cccc(Cl)c3)ncn2)c(OC)cc1N1CCC(N2CCN(C3COC3)CC2)CC1 [Example 199, N-(5-((6-((R)-3-(3-chlorophenyl)isoxazolidine-2-yl)pyrimidine-4-yl)amino)-4-methoxy-2-(4-(4-(oxetane-3-yl)piperazine-1-yl)piperidine-1-yl)phenyl)acrylamide]
A (GI50 < 50 nM) | C=CC(=O)Nc1cc(Nc2cc(N3OCC[C@@H]3c3ccc(Cl)cc3F)ncn2)c(OC)cc1N1CCC(N(C)C)CC1 [compound 403, N-(5-((6-((R)-3-(4-chloro-2-fluorophenyl)isoxazolidine-2-yl)pyrimidine-4-yl)amino)-2-(4-(dimethylamino)piperidine-1-yl)-4-methoxyphenyl) acrylamide]
A (GI50 < 50 nM) | C=CC(=O)Nc1cc(Nc2cc(N3OCC[C@@H]3c3ccc(Cl)cc3F)ncn2)c(OC)cc1N1CC[C@@H](N(C)C)C1 [compound 456, N-(5-((6-((R)-3-(4-chloro-2-fluorophenyl)isoxazolidine-2-yl)pyrimidine-4-yl)amino)-2-((R)-3-(dimethylamino)pyrolidine-1-yl)-4-methoxyphenyl) acrylamide]
A (GI50 < 50 nM) | C=CC(=O)Nc1cc(Nc2cc(N3OCC[C@@H]3c3cccc(F)c3F)ncn2)c(OC)cc1N1CCO[C@@H](C)C1 [compound 888, N-(5-((6-((R)-3-(2,3-difluorophenyl)isoxazolidine-2-yl)pyrimidine-4-yl)amino)-4-methoxy-2-((S)-2-methylmorpholino)phenyl)acrylamide]
A (GI50 < 50 nM) | C=CC(=O)Nc1cc(Nc2cc(N3OCC[C@@H]3c3ccc(F)c(Cl)c3F)ncn2)c(OC)cc1N1CCC(N2CCN(CC)CC2)CC1 [compound 639, N-(5-((6-((R)-3-(3-chloro-2,4-difluorophenyl)isoxazolidine-2-yl)pyrimidine-4-yl)amino)-2-(4-(4-ethylpiperazine-1-yl)piperidine-1-yl)-4-methoxyphenyl) acrylamide]
A (GI50 < 50 nM) | C=CC(=O)Nc1cc(Nc2cc(N3OCC[C@@H]3c3cccc(Cl)c3F)ncn2)c(OC)cc1N1CCC(N2CCN(CC)CC2)CC1 [compound 913, N-(5-((6-((R)-3-(3-chloro-2-fluorophenyl)isoxazolidine-2-yl)pyrimidine-4-yl)amino)-2-(4-(4-ethylpiperazine-1-yl)piperidine-1-yl)-4-methoxyphenyl) acrylamide]
A (GI50 < 50 nM) | C=CC(=O)Nc1cc(Nc2cc(N3OCC[C@@H]3c3cccc(Cl)c3)ncn2)c(OC)cc1N1CCC(N2CCN(C3CC3)CC2)CC1 [Example 138, N-(5-((6-((R)-3-(3-chlorophenyl)isoxazolidine-2-yl)pyrimidine-4-yl)amino)-2-(4-(4-cyclopropylpiperazine-1-yl)piperidine-1-yl)-4-methoxyphenyl) acrylamide]
A (GI50 < 50 nM) | C=CC(=O)Nc1cc(Nc2cc(N3OCC[C@@H]3c3ccccc3)ncn2)c(OC)cc1N1CCC(N2C[C@H]3C[C@@H]2CO3)CC1 [Example 53, N-(2-(4-((1R,4R)-2-oxa-5-azabicyclo[2.2.1]heptane-5-yl)piperidine-1-yl)-4-methoxy-5-((6-((R)-3-phenylisoxazolidine-2-yl)pyrimidine-4-yl)amino)phenyl) acrylamide]
A (GI50 < 50 nM) | C=CC(=O)Nc1cc(Nc2cc(N3OCC[C@@H]3c3cccc(F)c3F)ncn2)c(OC)cc1N1CCN(CC)CC1 [compound 297, N-(5-((6-((R)-3-(2,3-difluorophenyl)isoxazolidine-2-yl)pyrimidine-4-yl)amino)-2-(4-ethylpiperazine-1-yl)-4-methoxyphenyl) acrylamide]
A (GI50 < 50 nM) | C=CC(=O)Nc1cc(Nc2cc(N3OCC[C@@H]3c3ccc(Cl)cc3)ncn2)c(OC)cc1N1CCC(N2C[C@H]3C[C@@H]2CO3)CC1 [compound 867, N-(2-(4-((1R,4R)-2-oxa-5-azabicyclo [2.2.1]heptane-5-yl)piperidine-1-yl)-5-((6-((R)-3-(4-chlorophenyl)isoxazolidine-2-yl)pyrimidine-4-yl)amino)-4-methoxyphenyl) acrylamide]
B (50 nM ≤ GI50 < 500 nM) | C=CC(=O)Nc1cc(Nc2cc(N3OCC[C@@H]3Cc3cccc(N(C)C)c3)ncn2)c(OC)cc1N1CCC(N2C[C@@H]3C[C@H]2CO3)CC1 [compound 1048, N-(2-(4-((1S,4S)-2-oxa-5-azabicyclo [2.2.1]heptane-5-yl)piperidine-1-yl)-5-((6-((S)-3-(3-(dimethylamino)benzyl)isoxazolidine-2-yl)pyrimidine-4-yl)amino)-4-methoxyphenyl) acrylamide]
A (GI50 < 50 nM) | C=CC(=O)Nc1cc(Nc2cc(N3OCC[C@@H]3c3cc(F)cc(F)c3)ncn2)c(O[C@H](C)C(F)(F)F)cc1N1CCC(N2CCN(C3CC3)CC2)CC1 [Example 119, N-(2-(4-(4-cyclopropylpiperazine-1-yl)piperidine-1-yl)-5-((6-((R)-3-(3,5-difluorophenyl)isoxazolidine-2-yl)pyrimidine-4-yl)amino)-4-(((R)-1,1,1-trifluoropropane-yl)oxy)phenyl)acrylamide]
A (GI50 < 50 nM) | C=CC(=O)Nc1cc(Nc2cc(N3OCC[C@@H]3c3ccccc3)ncn2)c(OC)cc1N1CCC(N2C[C@@H]3C[C@H]2CO3)CC1 [Example 54, N-(2-(4-((1S,4S)-2-oxa-5-oxabicyclo[2.2.1]heptane-5-yl)piperidine-1-yl)-4-methoxy-5-((6-((R)-3-phenylisoxazolidne-2-yl)pyrimidine-4-yl)amino)phenyl) acrylamide]
A (GI50 < 50 nM) | C=CC(=O)Nc1cc(Nc2cc(N3OCC[C@@H]3c3cccc(Cl)c3F)ncn2)c(OC)cc1N1CCC(N2CCN(C3CC3)[C@H](C)C2)CC1 [Example 180, N-(5-((6-((R)-3-(3-chloro-2-fluorophenyl)isoxazolidine-2-yl)pyrimidine-4-yl)amino)-2-(4-((R)-4-cyclopropyl-3-methylpiperazine-1-yl)piperidine-1-yl)-4-methoxyphenyl) acrylamide]
